Measurements reported in ChEMBL document CHEMBL1201862, “PubChem BioAssay data set” (2004).
One block for each compound: values may come before it. Activity calls are given as the source filed them.

How the values were obtained:
[1] = molecular target: T1, Short transient receptor potential channel 4 (Mus musculus, UniProt Q9QUQ5); assay: mouse TRPC4 channel inhibitors, dose response, cell-based, HEK293 TRPC4/mu-opioid, Fluo-4 calcium (AID 434942); format: functional;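 further: potency of inhibitors blocking the TRPC4 calcium response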
T1 sequence (Q9QUQ5 whole entry): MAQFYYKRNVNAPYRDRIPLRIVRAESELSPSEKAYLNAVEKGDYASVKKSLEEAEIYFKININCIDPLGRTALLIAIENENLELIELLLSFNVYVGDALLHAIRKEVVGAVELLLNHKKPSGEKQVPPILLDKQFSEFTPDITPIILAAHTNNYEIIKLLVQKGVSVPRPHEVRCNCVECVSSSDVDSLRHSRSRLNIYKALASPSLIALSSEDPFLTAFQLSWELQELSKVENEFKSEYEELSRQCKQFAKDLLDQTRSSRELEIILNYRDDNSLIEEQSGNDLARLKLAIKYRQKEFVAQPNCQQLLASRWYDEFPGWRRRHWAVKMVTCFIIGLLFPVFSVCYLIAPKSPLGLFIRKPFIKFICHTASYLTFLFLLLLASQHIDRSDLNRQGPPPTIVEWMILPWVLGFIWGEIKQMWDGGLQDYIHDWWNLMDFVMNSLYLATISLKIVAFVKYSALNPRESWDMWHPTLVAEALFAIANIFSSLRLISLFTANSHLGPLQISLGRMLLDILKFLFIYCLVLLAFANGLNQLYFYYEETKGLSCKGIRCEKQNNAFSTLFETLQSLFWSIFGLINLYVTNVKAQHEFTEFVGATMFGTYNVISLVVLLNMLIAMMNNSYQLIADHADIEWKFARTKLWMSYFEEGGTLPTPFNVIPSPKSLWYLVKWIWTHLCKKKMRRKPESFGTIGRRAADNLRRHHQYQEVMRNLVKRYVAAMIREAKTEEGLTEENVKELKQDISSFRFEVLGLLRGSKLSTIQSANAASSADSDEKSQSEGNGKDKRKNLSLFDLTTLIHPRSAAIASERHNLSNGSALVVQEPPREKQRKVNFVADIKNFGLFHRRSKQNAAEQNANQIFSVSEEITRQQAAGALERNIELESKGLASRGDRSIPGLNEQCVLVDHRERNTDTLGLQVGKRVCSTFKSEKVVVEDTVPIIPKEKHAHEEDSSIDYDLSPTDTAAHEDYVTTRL

[2] = cytotoxicity in HEK-293T cells, dose response, cytotoxicity control for TCR NF-kB inhibitor project, luminescence, T-cell screen hits (AID 489026); format: functional, cell-based;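 further: cells exposed to compound about 14 hours before the viability readout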
[3] = molecular target: Voltage-dependent T-type calcium channel subunit alpha-1H (Homo sapiens, UniProt O95180); format: functional;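 further: channel activity triggered by adding a high calcium stimulation buffer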
Cytochrome P450 2D6 = Cytochrome P450 2D6 (Homo sapiens, UniProt P10635);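 further: CYP2D6 member of a cytochrome P450 panel assay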
[4] = molecular target: T2, DNA repair and recombination protein RAD54-like (Homo sapiens, UniProt Q92698); assay: inhibitors of human RAD54 branch migration, confirmation, biochemical, fluorescence, cherry-picked samples, dose series (AID 651657); format: functional
T2 sequence (Q92698 whole entry): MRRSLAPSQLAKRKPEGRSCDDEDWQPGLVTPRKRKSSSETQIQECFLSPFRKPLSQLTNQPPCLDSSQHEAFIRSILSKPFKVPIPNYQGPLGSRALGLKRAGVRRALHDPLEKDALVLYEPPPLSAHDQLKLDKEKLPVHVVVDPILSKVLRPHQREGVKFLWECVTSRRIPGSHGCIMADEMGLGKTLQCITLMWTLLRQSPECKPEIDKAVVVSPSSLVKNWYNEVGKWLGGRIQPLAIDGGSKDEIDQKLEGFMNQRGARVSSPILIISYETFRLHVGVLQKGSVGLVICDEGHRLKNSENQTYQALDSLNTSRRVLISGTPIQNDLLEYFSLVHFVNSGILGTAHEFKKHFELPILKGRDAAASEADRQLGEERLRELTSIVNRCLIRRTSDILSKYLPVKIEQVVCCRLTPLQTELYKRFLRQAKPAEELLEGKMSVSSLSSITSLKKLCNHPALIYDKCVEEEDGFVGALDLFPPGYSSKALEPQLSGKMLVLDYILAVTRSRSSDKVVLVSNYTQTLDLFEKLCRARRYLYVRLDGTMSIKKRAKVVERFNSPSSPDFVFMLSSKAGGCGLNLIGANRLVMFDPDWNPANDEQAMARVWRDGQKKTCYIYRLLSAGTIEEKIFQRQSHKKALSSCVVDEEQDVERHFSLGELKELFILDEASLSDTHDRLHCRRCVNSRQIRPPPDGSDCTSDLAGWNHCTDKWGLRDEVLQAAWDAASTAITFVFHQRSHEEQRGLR

INS1 = assay: beta cell apoptosis inhibitors, cytokine rescue, dose response, luminescence, retest (AID 449756); format: functional, cell-based; conditions: Rattus norvegicus, INS1;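 further: cell death triggered by IL-1 beta plus TNF-alpha plus IFN-gamma mixture; protective hits raise ATP signal compared with cytokine alone wells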
[5] = inhibitors of Vif binding to APOBEC3G peptide, primary screen, biochemical, TR-FRET, GST-Vif 1-94, biotin-A3G peptide, dose response retest (AID 1117319); format: functional;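 further: TR-FRET signal of purified GST-Vif binding a biotinylated A3G peptide; inhibitors lower the FRET signal by blocking Vif and A3G binding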
[6] = Shn3 3'UTR reporter inhibitors, dose response, cell-based, Clone20 osteoblasts, firefly luciferase, cherry-picked (AID 624132); format: functional;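 further: firefly luciferase luminescence from reporter carrying the Shn3 3'UTR in osteoblasts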
[7] = HepG2 cell cytotoxicity, dose response, cytotoxicity control for Shn3 inhibitor project, CellTiter-Glo, cherry-picked (AID 624134); format: functional, cell-based
[8] = control 3'UTR Renilla luciferase suppression, dose response, counter-screen for Shn3 inhibitor project, cell-based, Clone20-Shn3RL, cherry-picked (AID 624133); format: functional
[9] = molecular target: T3, Microphthalmia-associated transcription factor (Homo sapiens, UniProt O75030); assay: TRPM1 promoter luciferase signal decrease, dose response, MITF inhibitor project, cell-based, SK-MEL-5, cherry-picked, set 3 (AID 493073); format: functional
T3 sequence (O75030 whole entry): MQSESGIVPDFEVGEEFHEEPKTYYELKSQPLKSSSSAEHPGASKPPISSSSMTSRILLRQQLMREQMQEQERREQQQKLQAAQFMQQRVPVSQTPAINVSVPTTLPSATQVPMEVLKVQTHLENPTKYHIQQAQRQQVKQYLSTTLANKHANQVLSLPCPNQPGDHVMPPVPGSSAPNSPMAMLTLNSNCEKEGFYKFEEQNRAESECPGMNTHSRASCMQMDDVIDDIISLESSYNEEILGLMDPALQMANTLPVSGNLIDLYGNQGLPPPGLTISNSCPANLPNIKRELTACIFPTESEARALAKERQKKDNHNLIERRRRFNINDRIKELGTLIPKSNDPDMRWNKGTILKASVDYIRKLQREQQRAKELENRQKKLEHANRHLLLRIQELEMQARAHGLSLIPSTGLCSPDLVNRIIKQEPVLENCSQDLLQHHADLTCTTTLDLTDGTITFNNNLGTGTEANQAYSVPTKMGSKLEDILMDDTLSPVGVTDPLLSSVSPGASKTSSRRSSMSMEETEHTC

[10] = HEK293T cytotoxicity, dose response, cytotoxicity control for miR-122 modulator project, cell-based, inhibitor set, cherry-pick, set 2 (AID 720697); format: functional

Voltage-dependent T-type calcium channel subunit alpha-1H, sequence (O95180 whole entry): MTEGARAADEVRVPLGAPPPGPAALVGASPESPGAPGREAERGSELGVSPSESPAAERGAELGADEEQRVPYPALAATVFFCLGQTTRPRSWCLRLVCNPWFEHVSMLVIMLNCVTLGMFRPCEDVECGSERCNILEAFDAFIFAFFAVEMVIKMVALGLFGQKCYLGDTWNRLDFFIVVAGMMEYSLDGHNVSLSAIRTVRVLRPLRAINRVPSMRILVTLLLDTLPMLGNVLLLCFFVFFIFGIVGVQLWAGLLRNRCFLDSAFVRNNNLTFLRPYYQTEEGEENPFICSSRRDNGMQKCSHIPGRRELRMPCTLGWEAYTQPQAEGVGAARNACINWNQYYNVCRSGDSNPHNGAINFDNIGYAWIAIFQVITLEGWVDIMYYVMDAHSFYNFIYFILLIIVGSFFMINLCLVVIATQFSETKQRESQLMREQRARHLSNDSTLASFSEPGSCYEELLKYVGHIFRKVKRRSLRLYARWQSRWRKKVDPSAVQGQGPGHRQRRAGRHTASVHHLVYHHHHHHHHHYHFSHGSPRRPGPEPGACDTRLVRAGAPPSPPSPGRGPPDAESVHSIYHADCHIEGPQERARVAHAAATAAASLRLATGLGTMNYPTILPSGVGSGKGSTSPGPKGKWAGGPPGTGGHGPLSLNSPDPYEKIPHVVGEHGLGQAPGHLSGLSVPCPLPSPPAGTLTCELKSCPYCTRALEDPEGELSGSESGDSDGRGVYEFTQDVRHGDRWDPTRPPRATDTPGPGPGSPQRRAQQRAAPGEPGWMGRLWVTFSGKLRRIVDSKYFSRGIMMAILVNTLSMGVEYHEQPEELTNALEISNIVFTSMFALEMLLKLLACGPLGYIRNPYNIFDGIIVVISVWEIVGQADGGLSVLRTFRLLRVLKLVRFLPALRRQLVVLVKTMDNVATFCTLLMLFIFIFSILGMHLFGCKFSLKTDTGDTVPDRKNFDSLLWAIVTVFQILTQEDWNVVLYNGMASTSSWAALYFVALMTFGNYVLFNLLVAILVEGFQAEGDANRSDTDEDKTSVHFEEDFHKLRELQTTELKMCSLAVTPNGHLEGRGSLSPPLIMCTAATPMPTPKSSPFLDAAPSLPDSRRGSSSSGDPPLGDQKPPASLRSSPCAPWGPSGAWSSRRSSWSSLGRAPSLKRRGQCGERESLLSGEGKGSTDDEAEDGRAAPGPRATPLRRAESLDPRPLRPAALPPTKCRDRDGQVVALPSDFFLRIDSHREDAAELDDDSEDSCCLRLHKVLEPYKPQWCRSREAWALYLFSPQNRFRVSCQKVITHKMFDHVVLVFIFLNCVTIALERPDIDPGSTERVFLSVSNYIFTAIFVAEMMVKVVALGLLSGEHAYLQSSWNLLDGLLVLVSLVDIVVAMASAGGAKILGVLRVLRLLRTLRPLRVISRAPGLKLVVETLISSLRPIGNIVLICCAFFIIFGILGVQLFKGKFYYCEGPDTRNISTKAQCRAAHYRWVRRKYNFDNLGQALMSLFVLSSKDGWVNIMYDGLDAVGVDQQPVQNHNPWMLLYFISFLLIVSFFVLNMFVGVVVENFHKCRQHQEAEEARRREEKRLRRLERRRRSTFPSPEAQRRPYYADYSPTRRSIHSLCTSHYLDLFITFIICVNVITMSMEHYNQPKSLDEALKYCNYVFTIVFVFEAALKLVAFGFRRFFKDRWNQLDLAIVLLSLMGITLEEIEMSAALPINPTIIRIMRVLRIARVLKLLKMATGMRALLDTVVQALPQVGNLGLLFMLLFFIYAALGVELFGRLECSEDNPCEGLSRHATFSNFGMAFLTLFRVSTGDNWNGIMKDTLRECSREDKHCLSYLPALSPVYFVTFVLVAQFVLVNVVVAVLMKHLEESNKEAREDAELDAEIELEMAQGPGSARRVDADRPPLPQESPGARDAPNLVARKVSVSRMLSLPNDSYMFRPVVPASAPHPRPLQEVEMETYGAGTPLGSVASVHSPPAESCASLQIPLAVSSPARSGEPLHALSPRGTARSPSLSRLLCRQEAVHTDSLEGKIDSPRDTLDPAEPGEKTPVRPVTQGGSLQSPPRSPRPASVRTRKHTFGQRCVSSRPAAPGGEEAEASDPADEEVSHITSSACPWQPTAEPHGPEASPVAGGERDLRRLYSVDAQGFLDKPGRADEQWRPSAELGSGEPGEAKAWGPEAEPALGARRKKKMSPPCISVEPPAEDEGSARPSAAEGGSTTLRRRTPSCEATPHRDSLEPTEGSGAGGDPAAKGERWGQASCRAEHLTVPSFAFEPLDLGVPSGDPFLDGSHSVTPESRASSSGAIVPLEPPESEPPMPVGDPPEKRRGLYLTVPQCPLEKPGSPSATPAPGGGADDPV
Cytochrome P450 2D6, sequence (P10635 whole entry): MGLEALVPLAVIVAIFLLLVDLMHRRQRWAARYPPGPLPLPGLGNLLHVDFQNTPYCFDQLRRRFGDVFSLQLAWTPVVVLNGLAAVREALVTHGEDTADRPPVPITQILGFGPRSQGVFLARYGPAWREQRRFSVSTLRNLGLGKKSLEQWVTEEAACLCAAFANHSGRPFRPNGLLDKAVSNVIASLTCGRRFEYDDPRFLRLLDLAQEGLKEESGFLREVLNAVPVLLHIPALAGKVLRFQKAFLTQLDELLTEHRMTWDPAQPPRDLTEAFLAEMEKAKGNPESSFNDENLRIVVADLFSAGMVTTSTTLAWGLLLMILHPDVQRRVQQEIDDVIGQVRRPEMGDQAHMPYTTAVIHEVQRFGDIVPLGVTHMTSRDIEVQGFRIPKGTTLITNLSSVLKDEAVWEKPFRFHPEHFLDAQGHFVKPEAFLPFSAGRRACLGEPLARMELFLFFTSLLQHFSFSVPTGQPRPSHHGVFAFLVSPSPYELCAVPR

EC50 [1]: 1.68 µM (active)
SMILES: O=C(CN1CCCCCC1)N1c2ccccc2Sc2ccccc21

EC50 [1]: 0.596 µM (active)
SMILES: c1ccc(Cn2c(NCc3ccco3)nc3ccccc32)cc1

SMILES: COc1cc(C2=NOC(C(=O)NCc3ccc(F)cc3)C2)cc(OC)c1OC (centres undefined)
IC50 [2]: > 80 µM (inactive)

EC50 [3]: 8.67 µM (active)
AC50 (Cytochrome P450 2D6): 20 µM (inconclusive)
SMILES: COc1cccc(N(C(=O)Cn2nnc(-c3ccc(C)cc3)n2)C(C(=O)NC(C)(C)C)c2c[nH]c3ccccc23)c1 (centres undefined)

AC50 [4]: 100 µM (inactive)
SMILES: Cc1ccc2oc(=O)c3cc(C(=O)NCCCN4C(C)CCCC4C)sc3c2c1 (centres undefined)

SMILES: COc1ccc(CC(=O)Nc2nc(-c3ccc(F)c(F)c3)cs2)cc1OC
AC50 (INS1): 6.65 µM (active)
IC50 [2]: 51.3 µM (inactive)

EC50 [1]: 1.33 µM (active)
SMILES: COc1ccc(CN(C(=O)c2snc(C(N)=O)c2N)C(CC(C)C)C(=O)NC2CCCCC2)cc1 (centres undefined)

IC50 [5]: > 100 µM (active)
SMILES: O=C(CCN1C(=O)c2ccccc2C1=O)NCc1ccco1

AC50 [4]: 19.9 µM (active)
SMILES: CCn1c(=N)c(C(=O)NC)cc2c(=O)n3cccc(C)c3nc21

SMILES: Cc1ccc(N(C)S(=O)(=O)c2ccc(-c3cnc(C4CC4)o3)cc2)cc1
IC50 [2]: > 80 µM (inactive)

SMILES: O=C1CCCN2N=C(SCC(=O)Nc3cccc(C(F)(F)F)c3)SC2=N1
AC50 [6]: 4.37 µM (active)
AC50 [7]: 5.46 µM (active)
AC50 [8]: 2.95 µM (active)

SMILES: Cc1ccc(C(O)(c2ccc(C)c(C)c2)C2CN3CCC2CC3)cc1C (centres undefined)
AC50 [9]: 10.1 µM (active)

SMILES: Cc1cccc(NS(=O)(=O)c2ccc(-c3cnc(C4CC4)o3)cc2)c1
IC50 [2]: 67 µM (inactive)

SMILES: COc1cc2nc(C3CCC3)n(NC(=O)C3CCCC(OC)C3)c(=O)c2cc1OC (centres undefined)
AC50 [10]: 6.2 µM (active)

SMILES: CCOC(=O)c1[nH]c(C)c(C(=O)OCC(=O)NC(C)c2ccc(F)cc2)c1C (centres undefined)
IC50 [2]: > 80 µM (inactive)
